The test system of experiment [1] is human lung cancer cell line LU-65. Kind of experiment: tritiated thymidine incorporation, tumor cell growth (LU-65). Type of experiment: cell-based. Conditions: LU-65, FIG. 2B. An excerpt: FIGS. 2A-2C show the effect of sphingosine derivatives on human tumor cell growth. In FIG. 2A the growth of human colonic cancer cell line COLO-205 was monitored. In FIG. 2B the growth of human lung cancer cell line LU-65 was monitored. In FIG. 2C the growth of human gastric cancer cell line MKN-74 was monitored. In each Figure the ordinate represents the percent inhibition of tritiated thymidine incorporation, the solid circles represent sphingosine, the open circles represent N,N-dimethylsphingosine and the triangles represent N,N,N-trimethylsphingosine.
An in vitro assay relying on tritiated thymidine incorporation can be used to ascertain the effect of various compounds on cell proliferation. Briefly, tumor cells are seeded in flat bottom 96 well plates (Corning, N.Y.) at a concentration of 2×10^4 cells per well. The cells are cultured for 2 days in DMEM containing various concentrations of sphingoid, which is added as a PBS solution. The medium then is supplemented with tritiated thymidine at a concentration of 0.5 μCi per well. Following a six hour incubation the cells are collected using the PHD Cell Harvester (Cambridge Technology, Cambridge, Mass.) and amounts of incorporated radioactivity are determined after adding a suitable cell lysing agent and scintillation cocktail, such as ScintiVerse BD (Fisher Scientific, Fairlawn, Calif.) which performs both functions. […]

A further experiment concerns protein kinase-C. Kind of experiment: protein kinase-C activity (A431 cell PK-C, liposome method, histone III-S or myelin basic protein). Type of experiment: biochemical, human. As to conditions: histone III-S and myelin basic protein substrates, FIG. 4. An excerpt:
FIGS. 4A and 4B depict the effect of sphingosine derivatives on protein kinase-C activity in A431 cells. The standard liposome method of Kraft and Anderson (Nature 301, 621, 1983) was used. […] In FIG. 4B radioactive incorporation into histone III-s is depicted on the ordinate. In both panels SP represents sphingosine, MMS represents N-monomethylsphingosine, DMS represents N,N-dimethylsphingosineand TMS represents N,N,N-trimethylsphingosine.
In another in vitro assay, the influence of various compounds on PK-C activity can be monitored. Certain tumor cells present high levels of PK-C activity. The human epidermoid carcinoma cell line A-431 (ATCC No. CRL 1555) can be used in a bioassay for PK-C activity as described in Igarashi et al. (supra). Briefly, phosphatidylserine (5 μg/tube) and 1,2-diolein (0.05 μg/tube), with or without an appropriate quantity of a sphingosine derivative sample, are added in an organic solvent, ethanol or ethanol/chloroform, to a 1.5 ml tube (Sarstedt) and the mixture is evaporated under a N2 stream. The lipid mixture is sonicated in about 30 μl of 20 mM Tris-HCl (pH 7.5) for 30 minutes. The resulting liposomes are supplemented with a buffer mixture comprising 25 mM Tris-HCl (pH 7.5), 10 mM MgCl2, 400 μM EDTA, 50 μM EGTA, 500 μM CaCl2, 200 μg/ml histone III-S or myelin basic protein and 20 μM γ[^32 P]-ATP (2×10^6 cpm) to a final volume of about 90 μl. […]

The next experiment deals with mouse CTLL-2 cells. As to the kind of experiment: CTLL-2 cell proliferation (thymidine incorporation). Type of experiment: cell-based. Conditions: FIG. 10. Here is the method:
FIG. 10 depicts the effect of sphingosine derivatives on mouse T-cell line CTLL. Each point is the mean of three replicates. In the figure DMS represents N,N-dimethylsphingosine and TMS represents N,N,N-trimethylsphingosine.
For example, mouse CTLL-2 cells (ATCC No. TIB 214), a T lymphocyte cell line, were plated at 1.5×10^4 cells per well and exposed to test substances. Cell proliferation was monitored by thymidine incorporation.

A further experiment relates to erythrocytes. As to the kind of experiment: erythrocyte metabolic activity under blood storage conditions. Conditions: in vitro, normal blood storage conditions. Type of experiment: cell-based. An excerpt:
Similar results can be expected for leukocytes and platelets.

The next experiment deals with neutrophils. Kind of experiment: neutrophil superoxide production (cytochrome C reduction). Type of experiment: cell-based, human. Here is the method: FIGS. 13A and 13B depict the effect of various reagents on neutrophil function. In FIG. 13A, the effect of TMS on O2 production was determined by monitoring the superoxide-mediated reduction of cytochrome C (Clifford, Meth. Enz., 105, 393, 1981) by 10^6 neutrophils/ml at OD550 and an extinction coefficient of 21000/M/cm in a Beckman DU-50 spectrophotometer. The cells were preincubated for 10 minutes at room temperature with the noted concentrations of TMS prior to stimulation with 1 μM PMA (time 0).
Human neutrophils were obtained from normal male adults. Heparinized peripheral blood was mixed gently with an equal amount of 1% dextran solution in PBS in a 60 ml injection syringe. The mixture was allowed to sit vertically for 60 to 90 minutes at 37° C. The upper phase, which is rich in white blood cells, was mounted gently on the same volume of Ficoll-Paque (Pharmacia LKB, Uppsala, Sweden) in Falcon 2095 plastic test tubes (Becton Dickinson Labware, Lincoln Park, N.J.). Centrifugation at 450 g for 30 min at 4° C. brought the neutrophils to the bottom of the tubes. The upper phase and interface, which contains lymphocytes, were removed carefully by aspiration.
Superoxide production by neutrophils was quantitated by monitoring superoxide-mediated reduction of cytochrome C (Clifford, supra, in which the reduction is manifest as an increase in absorbance at 550 nm at an extinction coefficient of 21000/M/cm). Measurements were carried out with a Beckman DU-50 spectrophotometer at 37° C. using ≈1×10^6 neutrophils per ml. The cells were allowed to equilibrate for 10 min with TMS, or other effectors, prior to addition of 1 μM of PMA.

Entries after “also recorded” stand apart in the source; their conditions may differ.

One compound from patent US5466716A, “Liposomal trimethylsphingosine” (The Biomembrane Institute, priority 1994, dated 1995) can be followed below.

For the compound `CCCCCCCCCCCCC/C=C/[C@@H](O)[C@H](CO)[N+](C)(C)C` [TMS, N,N,N-trimethylsphingosine], the “inhibition of tumor cell growth” value in experiment [1] is reported as “superior to sphingosine; also recorded: showed an advantage over DMS”. Also, the “ability to inhibit PK-C” value in the experiment on protein kinase-C is recorded as “superior to the other compounds”. In addition, the “suppression of CTLL-2 cell growth” value in the experiment on mouse CTLL-2 cells is given as “effective in suppressing CTLL-2 cell growth”. In addition, in the experiment on erythrocytes, the erythrocyte metabolic activity result is listed as “retards erythrocyte metabolic activity”. Moreover, the “inhibition of oxyradical production” value with neutrophils (15 μM, FIG. 13B) is on record as “inhibited immediately”. Also, the “inhibition of superoxide production” value in the experiment with neutrophils (20 μM) is “completely abolishes superoxide production”; in the experiment with neutrophils (dose-dependence, FIGS. 13A and 13B) it was “inhibited by TMS in a dose-dependent manner”. In addition, the neutrophil superoxide production result in the experiment with neutrophils (Example 5) was “profound effect”.
